# Results from publication PMC10726465, “Synthesis and Evaluation of Small Molecule Inhibitors of the Androgen Receptor N-Terminal Domain” (ACS Medicinal Chemistry Letters, 2023).
# Tests used:
# in vitro = in vitro ADME; conditions: human, Caco-2
# Text: (§1) DMPK and physicochemical data were generated by Cyprotex Ltd, Alderley Park, Macclesfield, UK and Pharmaron Inc, Ningbo, China.
# Caco2 cell = test: in vitro; type: in vitro ADME
# Text: as §1
# hERG channel = hERG channel (Homo sapiens, UniProt Q12809); test: hERG channel inhibition, Q-patch clamp assay
# androgen receptor (AR) = biological target: T1, androgen receptor (AR) (Homo sapiens, UniProt P10275); conditions: for Lipophilic Ligand Efficiency (LLE): from VCaP GRE2-luciferase IC50 and cLogP; for IC50: read-out: VCaP GRE2-luciferase IC50, 24 h, 0–30 µM compound; for IC50 / activity in VCaP GRE2-luciferase assay (in words): VCaP cells, 1 nM DHT; for Ligand Efficiency (LE): from VCaP GRE2-luciferase IC50
# T1 sequence (P10275 1-920): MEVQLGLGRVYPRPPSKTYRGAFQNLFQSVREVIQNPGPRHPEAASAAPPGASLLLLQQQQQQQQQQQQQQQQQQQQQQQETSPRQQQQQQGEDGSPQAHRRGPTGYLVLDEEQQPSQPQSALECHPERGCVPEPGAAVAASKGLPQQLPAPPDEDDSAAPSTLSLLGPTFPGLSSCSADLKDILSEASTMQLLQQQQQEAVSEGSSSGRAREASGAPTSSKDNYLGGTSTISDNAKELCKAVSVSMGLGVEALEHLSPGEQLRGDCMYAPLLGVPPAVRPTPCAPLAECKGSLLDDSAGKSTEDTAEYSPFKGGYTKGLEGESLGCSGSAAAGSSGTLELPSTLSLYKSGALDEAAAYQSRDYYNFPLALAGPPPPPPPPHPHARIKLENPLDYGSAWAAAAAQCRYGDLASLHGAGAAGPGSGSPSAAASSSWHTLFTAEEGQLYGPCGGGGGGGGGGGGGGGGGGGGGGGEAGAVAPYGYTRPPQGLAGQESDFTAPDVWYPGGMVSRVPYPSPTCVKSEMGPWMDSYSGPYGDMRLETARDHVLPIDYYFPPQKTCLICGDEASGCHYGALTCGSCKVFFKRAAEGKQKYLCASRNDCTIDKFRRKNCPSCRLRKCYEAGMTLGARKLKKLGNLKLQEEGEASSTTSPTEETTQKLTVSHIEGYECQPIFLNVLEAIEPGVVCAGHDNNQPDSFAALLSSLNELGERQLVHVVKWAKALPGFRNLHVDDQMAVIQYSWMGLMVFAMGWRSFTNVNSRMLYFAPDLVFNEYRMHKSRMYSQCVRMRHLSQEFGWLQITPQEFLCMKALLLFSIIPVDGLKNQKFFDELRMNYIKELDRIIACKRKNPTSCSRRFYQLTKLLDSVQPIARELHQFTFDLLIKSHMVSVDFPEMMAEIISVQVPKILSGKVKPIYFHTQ
# Protocol: (§2) VCaP cells, obtained from the American Type Culture Collection, were maintained in Dulbecco’s Modified Eagles Medium (DMEM) supplemented with 10% foetal bovine serum. Cells were maintained at 37°C without antibiotics in a humidified atmosphere
# Transient transfection and Luciferase Activity Assay:
# Cells at 70–80% confluence in 24 well plates, were transferred to DMEM
# 300ng/well of the firefly reporter plasmid, GRE2-TATA-luc using JetPEI (PolyPLUS Transfection) according to the manufacturers’ protocol.
# replaced with fresh DMEM +5% CSS containing either DMSO (vehicle control) or 0– 30 µM small molecules together with 1nM DHT. Twenty four hours later, medium was aspirated, cells were washed with PBS and extracted with Passive Lysis Buffer
# Cell debris was removed by centrifugation at 13,000 xg for 5min and supernatants collected. Luciferase activity was measured in triplicate, using an in-house luciferase assay buffer (13 mM MgSO4 7H2O, 30 mM
# amount of total cellular protein.
# (§3) Inhibition of hormone-dependent expression of prostate specific antigen (PSA):
# (§4) VCaP prostate cells were treated with 1 nM DHT in the absence or presence of inhibitor. After 24 hours cells were harvested and PSA detected by Western blotting and normalised against β-actin.
# Luciferase activity in cells treated with small molecules was determined as a percentage of the untreated control, which was set at 100%. Plots of activity against small molecule concentration (log) were analysed in GraphPad PRISM 5 and IC50 values for each small molecule determined.
# [1] = In vivo pharmacokinetic profile in male CD-1 mice; conditions: mouse
# Text: Encouraged by the promising in vitro profile, compound 16 was advanced, and a pharmacokinetic (PK) profile was obtained in male CD-1 mice (Table 6).
# Plasma protein binding = type: in vitro ADME; conditions: mouse
# CYP 3A4 = CYP 3A4 (Homo sapiens, UniProt P08684); test: CYP450 inhibition (3A4); type: in vitro ADME
# CYP 3A4, sequence (P08684 whole entry): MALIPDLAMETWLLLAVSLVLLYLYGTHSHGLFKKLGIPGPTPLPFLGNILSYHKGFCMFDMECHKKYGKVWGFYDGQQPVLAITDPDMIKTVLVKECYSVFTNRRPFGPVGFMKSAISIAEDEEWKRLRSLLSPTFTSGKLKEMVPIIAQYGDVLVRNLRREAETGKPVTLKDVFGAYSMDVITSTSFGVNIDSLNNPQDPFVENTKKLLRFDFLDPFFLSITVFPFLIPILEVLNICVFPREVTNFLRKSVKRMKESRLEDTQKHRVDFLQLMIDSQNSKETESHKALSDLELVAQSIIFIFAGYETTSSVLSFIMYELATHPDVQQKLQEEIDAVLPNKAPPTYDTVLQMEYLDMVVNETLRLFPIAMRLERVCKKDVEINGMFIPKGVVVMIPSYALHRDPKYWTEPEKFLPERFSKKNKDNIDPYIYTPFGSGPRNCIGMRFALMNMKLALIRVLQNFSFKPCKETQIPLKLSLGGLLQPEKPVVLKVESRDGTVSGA
# [2] = system: prostate-specific antigen (PSA) expression; test: Inhibition of hormone-dependent expression of PSA in VCaP cells (Western blot); type: cell-based; conditions: 1 nM DHT, 24 h
# Protocol: In addition to this, we evaluated hormone-dependent expression of prostate-specific antigen (PSA) in VCaP cells (see the Supporting Information).
# as §2, §3, §4
# [3] = Human liver microsome stability; type: in vitro ADME; conditions: human liver microsomes
# Text: PSA expression (%inhibition) 34%
# Plots of activity against
# values for each small molecule determined.
# Macclesfield, UK and Pharmaron Inc, Ningbo, China.
# [4] = Thermodynamic aqueous solubility; type: physicochemical
# CYP 2D6 = CYP 2D6 (Homo sapiens, UniProt P10635); test: CYP450 inhibition (2D6); type: in vitro ADME
# CYP 2D6, sequence (P10635 whole entry, canonical isoform): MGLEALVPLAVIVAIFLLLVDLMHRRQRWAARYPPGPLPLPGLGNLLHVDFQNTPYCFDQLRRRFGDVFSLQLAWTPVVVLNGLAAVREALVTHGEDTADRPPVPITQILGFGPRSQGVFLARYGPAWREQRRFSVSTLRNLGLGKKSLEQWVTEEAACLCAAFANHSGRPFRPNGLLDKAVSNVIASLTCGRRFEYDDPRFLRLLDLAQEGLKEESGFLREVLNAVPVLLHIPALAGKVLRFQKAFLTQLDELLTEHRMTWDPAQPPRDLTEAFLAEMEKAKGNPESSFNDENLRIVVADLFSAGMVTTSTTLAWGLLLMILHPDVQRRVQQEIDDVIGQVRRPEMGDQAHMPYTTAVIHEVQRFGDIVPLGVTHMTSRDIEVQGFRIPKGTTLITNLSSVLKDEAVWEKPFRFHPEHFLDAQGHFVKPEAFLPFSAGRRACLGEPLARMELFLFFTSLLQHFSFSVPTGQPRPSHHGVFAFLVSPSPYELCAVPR
# AR-v (ARNTD–DBD) = biological target: T2, AR-v (ARNTD–DBD) (Homo sapiens, UniProt P10275); test: AR-v splice variant activity in PC3 cells transfected with ARNTD–DBD expression plasmid and GRE2-luciferase reporter; conditions: PC-3, read-out: inhibition of AR-v activity
# T2 sequence (P10275 1-632 limits assumed): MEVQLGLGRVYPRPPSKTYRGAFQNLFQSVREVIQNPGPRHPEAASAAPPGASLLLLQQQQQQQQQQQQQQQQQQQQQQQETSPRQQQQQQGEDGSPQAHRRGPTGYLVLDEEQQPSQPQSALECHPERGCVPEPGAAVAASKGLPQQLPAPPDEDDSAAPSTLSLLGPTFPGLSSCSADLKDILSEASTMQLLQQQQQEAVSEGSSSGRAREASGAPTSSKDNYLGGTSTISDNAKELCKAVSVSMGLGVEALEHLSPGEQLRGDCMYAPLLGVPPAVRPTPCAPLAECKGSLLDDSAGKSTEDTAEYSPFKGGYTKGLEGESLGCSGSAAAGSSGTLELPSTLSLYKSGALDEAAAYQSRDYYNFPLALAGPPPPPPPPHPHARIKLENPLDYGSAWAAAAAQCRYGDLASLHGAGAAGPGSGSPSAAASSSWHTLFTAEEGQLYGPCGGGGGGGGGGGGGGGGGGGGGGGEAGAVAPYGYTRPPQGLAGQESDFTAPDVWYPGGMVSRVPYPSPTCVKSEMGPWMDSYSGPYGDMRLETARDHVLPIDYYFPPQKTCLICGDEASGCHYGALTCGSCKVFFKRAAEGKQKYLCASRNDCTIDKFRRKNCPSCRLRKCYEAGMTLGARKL
# Protocol: To this end, AR-v splice variant activity was determined through transfection of PC3 cells with an ARNTD–DBD expression plasmid and a GRE2-luciferase reporter gene (Figure 3).[43]
# hERG channel, sequence (Q12809 whole entry): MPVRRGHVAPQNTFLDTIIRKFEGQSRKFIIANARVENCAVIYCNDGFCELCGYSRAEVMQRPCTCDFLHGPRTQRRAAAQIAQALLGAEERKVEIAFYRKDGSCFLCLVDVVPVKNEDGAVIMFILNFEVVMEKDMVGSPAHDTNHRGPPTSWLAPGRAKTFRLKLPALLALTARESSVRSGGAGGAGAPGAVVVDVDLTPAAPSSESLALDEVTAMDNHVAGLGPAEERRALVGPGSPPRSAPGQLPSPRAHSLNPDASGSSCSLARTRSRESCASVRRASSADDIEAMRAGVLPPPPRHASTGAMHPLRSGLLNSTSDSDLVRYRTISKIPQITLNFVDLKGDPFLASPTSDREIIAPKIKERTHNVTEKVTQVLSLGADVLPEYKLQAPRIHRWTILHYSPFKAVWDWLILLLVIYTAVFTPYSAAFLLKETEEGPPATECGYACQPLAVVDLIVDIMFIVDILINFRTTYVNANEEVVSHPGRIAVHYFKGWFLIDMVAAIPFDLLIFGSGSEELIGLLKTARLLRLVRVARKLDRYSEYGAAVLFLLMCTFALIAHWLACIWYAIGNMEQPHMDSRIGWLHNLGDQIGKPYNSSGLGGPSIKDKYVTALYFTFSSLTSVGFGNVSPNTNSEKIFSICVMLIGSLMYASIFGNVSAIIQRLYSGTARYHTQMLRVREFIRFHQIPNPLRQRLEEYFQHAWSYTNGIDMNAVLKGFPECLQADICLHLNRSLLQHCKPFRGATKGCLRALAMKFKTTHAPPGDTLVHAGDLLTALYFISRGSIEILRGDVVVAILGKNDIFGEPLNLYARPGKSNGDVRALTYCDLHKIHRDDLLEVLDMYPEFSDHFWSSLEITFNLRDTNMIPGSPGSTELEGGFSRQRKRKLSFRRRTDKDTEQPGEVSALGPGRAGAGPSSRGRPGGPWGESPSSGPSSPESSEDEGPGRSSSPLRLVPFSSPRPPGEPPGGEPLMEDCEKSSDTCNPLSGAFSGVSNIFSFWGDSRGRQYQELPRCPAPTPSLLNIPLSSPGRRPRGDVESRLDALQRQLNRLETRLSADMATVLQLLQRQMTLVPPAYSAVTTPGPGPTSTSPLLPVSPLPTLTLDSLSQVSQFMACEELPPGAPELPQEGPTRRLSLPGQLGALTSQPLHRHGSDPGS
smiles,measurement,setting,value
CSc1ccc(C(N)=O)cc1-c1ccc2c(cnn2C)c1 [Compound 16],Papp A→B,"in vitro; apical to basolateral, read-out: Caco2 permeability Papp A2B",33.1 ×10⁻⁶ cm/s
same,Papp B→A,"in vitro; basolateral to apical, read-out: Caco2 permeability Papp B2A",39.4 ×10⁻⁶ cm/s
same,efflux ratio,in vitro; read-out: Caco2 efflux ratio,1.2
same,Caco2 permeability Papp A2B,Caco2 cell; apical to basolateral,3.31 ×10⁻⁶ cm/s
same,Caco2 permeability Papp B2A,Caco2 cell; basolateral to apical,3.94 ×10⁻⁶ cm/s
same,hERG channel inhibition (in words),hERG channel; Q-patch clamp assay,no hERG channel inhibition
same,IC50,hERG channel; read-out: hERG IC50,> 10 µM
same,increase in potency over initial hit compound 7,androgen receptor (AR); VCaP GRE2-luciferase IC50 ratio,60 fold
same,Lipophilic Ligand Efficiency (LLE),androgen receptor (AR),4.7
same,IC50,androgen receptor (AR),0.12 µM
same,AUC0–t,[1]; iv 1 mg/kg,131 ng·h/mL
same,AUC0–∞,[1]; iv 1 mg/kg,132 ng·h/mL
same,CL,[1]; iv 1 mg/kg,126 mL min^–1 kg^–1
same,Cmax,[1]; iv 1 mg/kg,432 ng/mL
same,Vss_obs,[1]; iv 1 mg/kg,1.38 L/kg
same,t1/2,[1]; iv 1 mg/kg,17.4 min
same,AUC0–t,[1]; po 10 mg/kg,173 ng·h/mL
same,AUC0–∞,[1]; po 10 mg/kg,208 ng·h/mL
same,Cmax,[1]; po 10 mg/kg,195 ng/mL
same,F (oral bioavailability),[1]; po 10 mg/kg,16%
same,Tmax,[1]; po 10 mg/kg,0.25
same,t1/2,[1]; po 10 mg/kg,240 min
same,fraction unbound,Plasma protein binding,0.069
same,"CYP450 inhibition, 3A4 isoform (in words)",CYP 3A4,no inhibition
same,IC50,CYP 3A4,> 25 µM
same,PSA expression (% inhibition),[2]; 10 μM,34%
same,microsomal CLint,[3]; read-out: HLM CLint,25.6 µL/min/mg
same,half-life,[3]; read-out: HLM t1/2,54 min
same,solubility,[4],2.6 µM
same,"CYP450 inhibition, 2D6 isoform (in words)",CYP 2D6,no inhibition
same,IC50,CYP 2D6,> 25 µM
same,inhibition at 10 µM,AR-v (ARNTD–DBD),35%
Cn1ncc2cc(-c3cc(C(N)=O)ccc3F)ccc21 [Compound 44],activity in VCaP GRE2-luciferase assay (in words),androgen receptor (AR),inactive
same,Ligand Efficiency (LE),androgen receptor (AR),0.52
same,Lipophilic Ligand Efficiency (LLE),androgen receptor (AR),5.6
same,IC50,androgen receptor (AR),> 30 µM
Cn1ncc2cc(-c3cc(C(N)=O)ccc3C(F)(F)F)ccc21 [Compound 45],Ligand Efficiency (LE),androgen receptor (AR),0.48
same,Lipophilic Ligand Efficiency (LLE),androgen receptor (AR),5.4
same,IC50,androgen receptor (AR),8.6 µM
COc1ccc(C(N)=O)cc1-c1ccc2c(cnn2C)c1 [Compound 46],Ligand Efficiency (LE),androgen receptor (AR),0.49
same,Lipophilic Ligand Efficiency (LLE),androgen receptor (AR),5.8
same,IC50,androgen receptor (AR),> 30 µM
Cn1ncc2cc(-c3cc(C(N)=O)ccc3OCc3ccccc3)ccc21 [Compound 47],Ligand Efficiency (LE),androgen receptor (AR),0.38
same,Lipophilic Ligand Efficiency (LLE),androgen receptor (AR),4.4
same,IC50,androgen receptor (AR),> 30 µM
Cn1ncc2cc(-c3cc(C(N)=O)ccc3OC(F)(F)F)ccc21 [Compound 48],Ligand Efficiency (LE),androgen receptor (AR),0.43
same,Lipophilic Ligand Efficiency (LLE),androgen receptor (AR),4.6
same,IC50,androgen receptor (AR),> 30 µM
Cn1ncc2cc(-c3cc(C(N)=O)ccc3O)ccc21 [Compound 49],activity in VCaP GRE2-luciferase assay (in words),androgen receptor (AR),lack of activity
same,Ligand Efficiency (LE),androgen receptor (AR),0.52
same,Lipophilic Ligand Efficiency (LLE),androgen receptor (AR),6.1
same,IC50,androgen receptor (AR),> 30 µM
Cn1ncc2cc(-c3cc(C(N)=O)ccc3OCC3CC3)ccc21 [Compound 50],activity in VCaP GRE2-luciferase assay (in words),androgen receptor (AR),inactive
same,Ligand Efficiency (LE),androgen receptor (AR),0.43
same,Lipophilic Ligand Efficiency (LLE),androgen receptor (AR),5.1
same,IC50,androgen receptor (AR),> 30 µM
CC(C)COc1ccc(C(N)=O)cc1-c1ccc2c(cnn2C)c1 [Compound 51],activity in VCaP GRE2-luciferase assay (in words),androgen receptor (AR),inactive
same,Ligand Efficiency (LE),androgen receptor (AR),0.43
same,Lipophilic Ligand Efficiency (LLE),androgen receptor (AR),4.7
same,IC50,androgen receptor (AR),> 30 µM
Cn1ncc2cc(-c3cc(C(N)=O)ccc3NCc3ccccc3)ccc21 [Compound 52],Ligand Efficiency (LE),androgen receptor (AR),0.46
same,Lipophilic Ligand Efficiency (LLE),androgen receptor (AR),6.2
same,IC50,androgen receptor (AR),0.94 µM
Cn1ncc2cc(-c3cc(C(N)=O)ccc3N3CCOCC3)ccc21 [Compound 53],Ligand Efficiency (LE),androgen receptor (AR),0.41
same,Lipophilic Ligand Efficiency (LLE),androgen receptor (AR),6.1
same,IC50,androgen receptor (AR),> 30 µM
Cn1ncc2cc(-c3cc(C(N)=O)ccc3NCCN3CCOCC3)ccc21 [Compound 54],Ligand Efficiency (LE),androgen receptor (AR),0.37
same,Lipophilic Ligand Efficiency (LLE),androgen receptor (AR),6.4
same,IC50,androgen receptor (AR),> 30 µM
Cn1ncc2cc(-c3cc(C(N)=O)ccc3NCCN3CCCCC3)ccc21 [Compound 55],Ligand Efficiency (LE),androgen receptor (AR),0.37
same,Lipophilic Ligand Efficiency (LLE),androgen receptor (AR),5.3
same,IC50,androgen receptor (AR),> 30 µM
Cn1ncc2cc(-c3cc(C(N)=O)ccc3NCCCN3CCOCC3)ccc21 [Compound 56],Ligand Efficiency (LE),androgen receptor (AR),0.43
same,Lipophilic Ligand Efficiency (LLE),androgen receptor (AR),7.5
same,IC50,androgen receptor (AR),0.8 µM
CN(C)CCNc1ccc(C(N)=O)cc1-c1ccc2c(cnn2C)c1 [Compound 57],Ligand Efficiency (LE),androgen receptor (AR),0.41
same,Lipophilic Ligand Efficiency (LLE),androgen receptor (AR),6.4
same,IC50,androgen receptor (AR),> 30 µM
CSc1ccc(C(=O)O)cc1-c1cncnc1 [Compound 58],Ligand Efficiency (LE),androgen receptor (AR),0.80
same,Lipophilic Ligand Efficiency (LLE),androgen receptor (AR),8.2
same,IC50,androgen receptor (AR),0.12 µM
CSc1ccc(C(=O)N2CCCCC2)cc1-c1cncnc1 [Compound 59],Ligand Efficiency (LE),androgen receptor (AR),0.62
same,Lipophilic Ligand Efficiency (LLE),androgen receptor (AR),6.8
same,IC50,androgen receptor (AR),0.13 µM
CSc1ccc(C(=O)N2CCOCC2)cc1-c1cncnc1 [Compound 60],Ligand Efficiency (LE),androgen receptor (AR),0.60
same,IC50,androgen receptor (AR),0.26 µM
"CC(C)(c1ccc(OCC(O)CO)cc1)c1ccc(OCC(O)CCl)cc1 (stereo not drawn) [EPI-001, reference compound]",PSA expression (% inhibition),[2]; 50 μM,19%
